Measurements taken from US20090215028A1, “Methods and Compositions for Determining Anti-HIV Drug Susceptibility and Replication Capacity of HIV” (priority 2005, published 2009).

Key:
Assay type in all cases: cell-based
[1] = tested on: HIV isolated from treatment-naïve patients (RHIN segment); assay: Anti-HIV drug susceptibility assay (luciferase test vectors, 293 cells), patient-derived RHIN segment
Text: (§1) Patient-derived segment(s) corresponding to either the entire pol gene, encoding HIV protease, reverse transcriptase, integrase, and RNAse H (hereinafter “POL”), or the portion of pol encoding amino acids 319-440 of reverse transcriptase, integrase, and RNAse H (hereinafter “RHIN”), were amplified by the reverse transcription-polymerase chain reaction method (RT-PCR) using viral RNA isolated from viral particles present in the plasma or serum of HIV-infected individuals as follows. Virus was pelleted by centrifugation at 20,400×g for 60 min from plasma (typically, 1 ml) prepared from blood samples collected in evacuated tubes containing either EDTA, acid-citrate dextrose, or heparin as an anticoagulant. Virus particles were disrupted by resuspending the pellets in 200 μl of lysis buffer (4 M guanidine thiocyanate, 0.1 M Tris HCl [pH 8.0], 0.5% sodium lauryl sarcosine, 1% dithiothreitol). RNA was extracted from viral lysates by using oligo(dT) linked to magnetic beads (Dynal, Oslo, Norway). Reverse transcription was performed with Superscript III (Invitrogen) at 50 degrees for 1 hour using primer 1.
From the resultant cDNA either POL or RHIN sequences were amplified using the Advantage High Fidelity PCR kit (BD Biosciences; Clontech). POL amplification products are made using forward Primer 3 containing an ApaI site and reverse Primer 4 containing a Xho 1 site. RHIN amplification products are made using forward Primer 2 containing a PINA1 site and reverse Primer 4 containing a Xho 1 site.
A retroviral vector designed to measure antiretroviral drug susceptibility was constructed by using an infectious molecular clone of HIV-1. The vector, referred to herein as an indicator gene viral vector (IGVV), is replication defective and contains a luciferase expression cassette inserted within a deleted region of the envelope (env) gene. The IGVV is described in U.S. Pat. No. 5,837,464 (International Publication Number WO 97/27319) which is hereby incorporated by reference in its entirety. […]

[2] = tested on: HIV mutants comprising site-directed mutations in integrase; assay: Anti-HIV drug susceptibility assay (luciferase test vectors, 293 cells), site-directed integrase mutants; details: FIG. 2
Text: A retroviral vector designed to measure antiretroviral drug susceptibility was constructed by using an infectious molecular clone of HIV-1. The vector, referred to herein as an indicator gene viral vector (IGVV), is replication defective and contains a luciferase expression cassette inserted within a deleted region of the envelope (env) gene. The IGVV is described in U.S. Pat. No. 5,837,464 (International Publication Number WO 97/27319) which is hereby incorporated by reference in its entirety. This retroviral vector was further modified to allow insertion of either the entire pol gene (POL) or the portion of pol encoding amino acids 319-440 of reverse transcriptase, the RNase H portion of reverse transcriptase, and integrase (RHIN) by engineering an Xho1 restriction enzyme recognition site into vif. Prior to doing this, an Xho 1 site in nef was deleted. Test vectors (TVs) were constructed by incorporating amplified POL or RHIN into the IGVV by using ApaI and Xho1 or PinAI and Xho1 restriction sites respectively. TVs were prepared as libraries (pools) in order to capture and preserve the pol or RHN sequence heterogeneity of the virus in the patient. […]
Susceptibility tests were carried out with the TV libraries by using viral particles comprising the RTV libraries to infect a host cell in which the expression of the indicator gene is measured. The amount of indicator gene (luciferase) activity detected in infected cells is used as a direct measure of “infectivity,” i.e., the ability of the virus to complete a single round of replication. Thus, drug resistance or sensitivity can be determined by plotting the amount of luciferase activity produced by patient derived viruses in the presence of varying concentrations of the antiviral drug. By identifying the concentration of drug at which luciferase activity is half-maximum, the IC50 of the virus from which patient-derived segment(s) were obtained for the antiretroviral agent can be determined. […]

[3] = tested on: HIV isolated from treatment-naïve patients (POL segment); assay: Anti-HIV drug susceptibility assay (luciferase test vectors, 293 cells), patient-derived POL segment; details: 30 clinical isolates from treatment-naïve patients, FIG. 5
Text: as §1
From the resultant cDNA either POL or RHIN sequences were amplified using the Advantage High Fidelity PCR kit (BD Biosciences; Clontech). POL amplification products are made using forward Primer 3 containing an ApaI site and reverse Primer 4 containing a Xho 1 site. […]

[4] = 30 clinical isolates from treatment-naïve patients, RHIN segment, FIG. 5

SMILES: O=C(NCc1ccc(F)cc1)c1nc(N2CCCCS2(=O)=O)c2cccnc2c1O [L-870,810]
- mean fold change (FC) in IC50 [1, 4]: 0.86
- median fold change (FC) in IC50 [1, 4]: 0.82
- mean fold change (FC) in IC50 relative to HIV strain IIIb ([1]; RHIN sequences from 45 treatment-naïve patient viruses, FIG. 4): 0.83
- susceptibility (IC50 relative to HIV strain IIIB) ([2]; site-directed integrase mutant N155S): reduced susceptibility
- susceptibility (IC50 relative to HIV strain IIIB) ([2]; site-directed integrase mutant V72I/F121Y/T125K): reduced susceptibility
- susceptibility (IC50 relative to HIV strain IIIB) ([2]; site-directed integrase mutant): reduced susceptibility
- mean fold change (FC) in IC50 [3]: 0.85
- median fold change (FC) in IC50 [3]: 0.85
